# Test results: patent publication US20240092741A1, “COMPOSITION FOR PREVENTION OR TREATMENT OF NEUROFIBROMATOSIS TYPE 2 SYNDROME” (PRG S&TECH INC., priority 2021, published 2024)
# Experiments:
# HEI-193 cells [1] = experiment: Tumorsphere formation assay, HEI-193 cells; assay type: cell-based, human; conditions: 10 μM
# Protocol: (§1) For tumorsphere formation assay, Hei-193 or mouse schwannoma cells (3×10^6 cells/plate) were cultured in DMEM/F12 medium (supplemented with 2% B27 and 40 ng/ml bFGF) and added with the indicated chemicals on non-coated plates for indicated days.
# RKIP = RKIP / p-Erk immunoblotting in mouse schwannoma (mouse NF2) cells; assay type: cell-based
# Protocol: Cells were harvested and lysed using RIPA buffer [50 mM Tris-Cl, pH 7.5, 150 mM NaCl, 1% NP-40, 0.1% SDS, and 10% sodium deoxycholate] to examine cellular signaling. Protein concentrations in samples were measured using Bio-Rad (Hercules, CA, USA) protein assay kits and BSA standards. The samples (20 μg protein per lane) were separated by sodium dodecyl sulfate-polyacrylamide gel electrophoresis (SDS-PAGE), transferred to Immobilon-P^SQ transfer membranes (Millipore Corp., MA, USA), which were then cultured with 3% skim milk-containing TBS-T buffer (Tris-HCl-based buffer containing 20 mM Tris pH 7.6, 150 mM NaCl, and 0.05% Tween 20) for 1 hour at room temperature and then reacted with primary antibody in TBS-T overnight at 4° C. The membranes were then washed and reacted with secondary horseradish peroxidase (HRP)-conjugated antibodies [goat anti-mouse, goat anti-rabbit, and mouse anti-goat antibodies (Pierce, Thermo Fisher Scientific, Inc., Rockford, IL, USA)] in TBS-T at room temperature for 2 hours. The blots were detected using an HRP-conjugated secondary antibody using ECL kit (Intron, Seoul, Korea).
# [2] = test system: NF2-transfected HEI-193 cells; experiment: MTT and immunoblotting in NF2-transfected HEI-193 cells; assay type: cell-based, human; conditions: NF2-transfected HEI-193 cells (FIGS. 8B, 8C)
# Protocol: In other words, cells were seeded at a density of 2×10^5 cells/well in 12-well plates and cultured overnight before transfection. The vector (1.5 μg) was mixed with 1.5 μl of Jetpei reagent dissolved in 150 mM NaCl solution. The mixture was reacted at room temperature for 15 minutes, and then added to the cells. After 3 hours, the serum-free medium 15 was replaced with medium supplemented with 10% FBS. Cells were harvested and lysed using RIPA buffer [50 mM Tris-Cl, pH 7.5, 150 mM NaCl, 1% NP-40, 0.1% SDS, and 10% sodium deoxycholate] to examine cellular signaling. Protein concentrations in samples were measured using Bio-Rad (Hercules, CA, USA) protein assay kits and BSA standards. […] The blots were detected using an HRP-conjugated secondary antibody using ECL kit (Intron, Seoul, Korea). […] Plates were then cultured at 37° C. for 4 hours, the MTT solution was removed, the precipitated substances were dissolved using a solution (DMSO:ethanol=1:1), and an amount of formazan dye produced was quantified by measuring the absorbance at 560 nm using an ELISA microplate reader (Thermo Fisher Scientific, MA, USA).
# HEI-193 cells [3] = experiment: Microarray gene expression profile of HEI-193 cells; assay type: cell-based, human; conditions: PRG-N-01-treated HEI-193 cells vs control
# Protocol: Total RNA (500 ng) was extracted using an RNAeasy kit (Qiagen). RNA labeling, hybridization on Human Gene 1.0 ST array (Affymetrix), and data analysis were performed using DNA Link (Seoul, Korea). Genes showing at least a 2-fold difference in each cell line were selected for further analysis.
# HEI-193 cells [4] = experiment: Cell proliferation (cell counting) in HEI-193 cells; assay type: cell-based, human; conditions: 10 μM, indicated time (FIG. 12B)
# Protocol: Cell growth curves were analyzed by seeding 2×10^4 cells/well into a 6-well plate. After the indicated day, the cells were trypsinized and dissociated into single cells. A minimum of 10,000 cells were counted using an Attune NxT flow cytometer (Thermo Fisher Scientific, Inc., Rockford, IL, USA).
# HEI-193 cells [5] = experiment: Morphological change / differentiation of HEI-193 cells; assay type: cell-based, human; conditions: 7 days (FIGS. 12C, 13B)
# mouse schwannoma cells = experiment: Tumorsphere formation assay, mouse schwannoma cells; assay type: cell-based; conditions: 10 μM
# Protocol: as §1
# [6] = tumorspheres, 10th day, immunoblotting (FIGS. 15B, 14E)
compound,measurement,setting,value
"CCN(CC)CCOc1ccc(-c2nnn(Cc3ccc(OC)cc3)c2N)cc1 [PRG-N-01, 4-(4-(2-(diethylamino)ethoxy)phenyl)-1-(4-methoxybenzyl)-1H-1,2,3-triazol-5-amino]",tumorsphere size and number,"HEI-193 cells [1]; HEI-193 cells, 10th day",reduced the tumorsphere size as well as the number of tumorsphere
same,tumorsphere formation,"HEI-193 cells [1]; HEI-193 cells, DMEM/F12 medium",obviously inhibited tumorsphere formation
same,SOX10 expression in tumorspheres,HEI-193 cells [1]; [6],obviously increased
same,"expression of stem cell factors (SOX2, c-Myc, Nanog, Oct4) in tumorspheres",HEI-193 cells [1]; [6],downregulated to undetectable levels
same,RKIP expression,RKIP; mouse NF2 cell line,increased RKIP expression
same,RKIP induction and p-Erk suppression,"RKIP; mouse schwannoma cells, 36 h (FIG. 9B)",observed only in actual mouse schwannoma
same,"chemical effect (antiproliferating effect, RKIP induction, p-Erk suppression)",[2],no chemical effect
same,"Log2Ratio, gene FABP3 (fatty acid binding protein 3, muscle and heart)",HEI-193 cells [3],−2.272
same,"Log2Ratio, gene HIST1H1B",HEI-193 cells [3],−2.475
same,"Log2Ratio, gene MEST",HEI-193 cells [3],−1.95
same,"Log2Ratio, gene MMP1",HEI-193 cells [3],2.163
same,"Log2Ratio, gene MSMO1",HEI-193 cells [3],−1.988
same,"Log2Ratio, gene OLFML3",HEI-193 cells [3],−2.099
same,"Log2Ratio, gene PBK",HEI-193 cells [3],−1.976
same,"Log2Ratio, gene PLK1 (polo-like kinase 1)",HEI-193 cells [3],−2.041
same,"Log2Ratio, gene PRR11",HEI-193 cells [3],−2.207
same,"Log2Ratio, gene TOP2A",HEI-193 cells [3],−1.931
same,"cell-cycle-related genes (PLK1, CENPE) expression",HEI-193 cells [3],downregulated
same,"lipid metabolism-related genes (PNILPRP3, NR4A2, ABCA1) expression",HEI-193 cells [3],strikingly upregulated
same,tenascin C gene expression (readout of canonical TGF-β signaling),HEI-193 cells [3],considerably upregulated
same,cell growth (cell count),HEI-193 cells [4],completely inhibited cell growth
same,morphological changes,HEI-193 cells [5],induced morphological changes
same,tumorsphere size and number,mouse schwannoma cells; 10th day,reduced the tumorsphere size as well as the number of tumorsphere
same,tumorsphere formation,mouse schwannoma cells; DMEM/F12 medium,obviously inhibited tumorsphere formation
